According to patent US20250276007A1, “CARBAMOYLPHENYLBORONIC ACID-CONTAINING ACRYLIC MONOMERS AND USES THEREOF” (Alcon Inc., priority 2024, published 2025):
Where two headings read alike, the source gives them in different places.

Test: pKa of boronic acid monomer
Assay type: physicochemical
Details: monomer forming the repeating units of the copolymer

Row | Compound | pKa (read-out: pKa) | pKa
1 | C=CC(=O)Nc1cccc(B(O)O)c1 [APBA, 3-(acrylamido)phenylboronic acid] | ~8.1 | –
2 | C=CC(=O)NCCNC(=O)c1ccc(B(O)O)cc1Cl [CPBA] | – | about 7.2
